Data reported in US9000045B2, “CETP activity inhibitors” (Japan Tobacco Inc., priority 1997, dated 2015).

Columns and labels:
CETP [1] = target: T1, CETP (Homo sapiens, UniProt P11597); test: Ex vivo CETP activity inhibitory effect of plasma from transgenic mice; set-up: from tissue; host or cells: plasma of transgenic mice carrying the human CETP gene; conditions: mouse, po, p.o., 6 hours after administration, transgenic mice with human CETP gene, read-out: CETP activity inhibitory rate in plasma from transgenic mouse
T1 sequence (P11597 18-493): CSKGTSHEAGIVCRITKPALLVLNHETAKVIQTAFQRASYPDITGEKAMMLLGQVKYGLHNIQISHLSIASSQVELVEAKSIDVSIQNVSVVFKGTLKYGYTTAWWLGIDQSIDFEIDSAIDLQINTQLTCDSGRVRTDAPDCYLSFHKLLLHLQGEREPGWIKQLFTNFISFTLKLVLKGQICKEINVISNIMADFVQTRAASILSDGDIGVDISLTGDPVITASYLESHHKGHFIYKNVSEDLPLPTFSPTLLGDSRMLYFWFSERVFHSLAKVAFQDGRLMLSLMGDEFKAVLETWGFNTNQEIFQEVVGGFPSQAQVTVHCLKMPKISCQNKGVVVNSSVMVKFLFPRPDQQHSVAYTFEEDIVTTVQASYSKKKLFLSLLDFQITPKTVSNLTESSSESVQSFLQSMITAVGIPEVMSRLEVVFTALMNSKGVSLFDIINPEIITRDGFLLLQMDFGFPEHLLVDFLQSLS
Experimental: Potassium bromide (KBr) was added to the plasma of healthy subjects (40 ml) to adjust specific gravity to d=1.125 g/ml. Density gradient centrifugation (227,000×g, 4° C., 17 hours) was conducted to obtain a fraction with specific gravity d>1.125 g/ml (HDL3 fraction). The fraction thus obtained was dialyzed against a PBS solution [10 mM Na2HPO4/10 mM NaH2PO4/0.15 M NaCl/1 mM EDTA (pH 7.4)]. Then, tritium-labeled cholesterol (10 nM) (50.3 Ci/mM) was dissolved in 95% ethanol and added gradually to the above HDL3 fraction under stirring. The solution was incubated for 18 hours at 37° C. [Tritium-labeled cholesterol was esterified by this procedure by the action of lecithin:cholesterol acyltransferase (LCAT) present on the surface of HDL3 and taken up into the interior of HDL3 as tritium-labeled cholesterylester ([^3H]CE)]. After incubation, KBr was added and specific gravity was adjusted to d=1.21 g/ml. Density gradient centrifugation (227,000×g, 4° C., 17 hours) was conducted and the fraction with d<1.21 g/ml was harvested. The fraction thus obtained was dialyzed against the above PBS solution to obtain HDL3 that took up [^3H]CE ([^3H]CE-HDL3, specific gravity: 1.125<d<1.21, specific activity: 101,000 dpm/nM), which served as donor lipoprotein.
Physiological saline (specific gravity d=1.006 g/ml) was layered upon the plasma of healthy subjects (100 ml). Density gradient centrifugation (227,000×g, 4° C., 4 hours) was conducted and the fraction with specific gravity d>1.006 g/ml was harvested. KBr was added to the fraction thus obtained to adjust specific gravity to d=1.063 g/ml and density gradient centrifugation (227,000×g, 4° C., 20 hours) was conducted to harvest the fraction with specific gravity […]. The thus-obtained fraction was dialyzed against the above PBS solution to obtain fractions containing IDL and LDL (specific gravity: 1.006<d<1.063), which served as acceptor lipoprotein.
Samples were suspended in a 0.5% methylcellulose solution and administered orally using a plastic probe to transgenic mice having introduced human CETP gene (hereafter referred to as mice; prepared using the method described in Japanese Patent Application No. Hei 8-130660), which had been fasted overnight. Blood was collected before administration, and 6 hours after administration CETP activity in the plasma was determined using the following method.
Donor lipoprotein ([^3H]CE-HDL3, containing 0.21 μg cholesterol) obtained in the above (1), acceptor lipoprotein obtained in the above (2) (containing 21 μg of cholesterol), and 0.9 μl of mice plasma were added to microtubes. A total volume was adjusted to 600 μl/tube with a TBS solution [10 mM Tris/0.15 M NaCl (pH 7.4)]. The microtubes were incubated for 15 hours at 37° C. or 4° C. Then, an ice-cooled TBS solution (400 μl/tube) and a 0.3% dextran sulfate solution (100 μl/tube) containing 0.15 M magnesium chloride were added to the microtubes and mixed well. After allowing the microtubes to stand for 30 minutes at 4° C., centrifugation (8,000 rpm, 4° C., 10 minutes) was carried out and radioactivity of the resulting supernatant (HDL fraction) was determined with a scintillation counter.

CETP [2] = target: T1, CETP; test: In vitro CETP activity inhibitory effect in whole plasma; type: biochemical; set-up: Plasma containing [^3H]CE-HDL3 (600,000 dpm/ml) was prepared by adding donor lipoprotein obtained in the above (1) to plasma from healthy subjects; from tissue; host or cells: whole plasma of healthy subjects; conditions: plasma from healthy subjects containing [3H]CE-HDL3, incubated 4 hours at 37° C.; read-out: CETP activity inhibition in whole plasma IC50
Experimental: The fraction thus obtained was dialyzed against a PBS solution [10 mM Na2HPO4/10 mM NaH2PO4/0.15 M NaCl/1 mM EDTA (pH 7.4)]. Then, tritium-labeled cholesterol (10 nM) (50.3 Ci/mM) was dissolved in 95% ethanol and added gradually to the above HDL3 fraction under stirring. The solution was incubated for 18 hours at 37° C. […] After incubation, KBr was added and specific gravity was adjusted to d=1.21 g/ml. […] A sample solution was prepared using a 1:1 solution of N-methylpyrrolidone and polyethyleneglycol 400 as a solvent. […] Based on the inhibition rate (%) of CETP activity, IC50 value of each sample was calculated.

Row | Compound | inhibition at 100 mg/kg (CETP [1]) | IC50 (CETP [2]) | inhibition at 30 mg/kg (CETP [1]) | inhibition at 10 mg/kg (CETP [1])
1 | CC(C)CCC1(C(=O)Nc2ccccc2SC(=O)c2ccc([N+](=O)[O-])cc2)CCCCC1 [Example 25-46] | 35% | 9 µM | – | –
2 | CC(C)CC1(C(=O)Nc2ccccc2SC(=O)COc2ccc(Cl)cc2)CCCCC1 [Example 64] | – | 4 µM | 34% | –
3 | CC(=O)NC1(C(=O)Sc2ccccc2NC(=O)C2(CCC(C)C)CCCCC2)CCCCC1 [Example 25-56] | – | 7 µM | 24% | –
4 | CCC(CC)CC1(C(=O)Nc2ccccc2SC(=O)C(C)C)CCCCC1 [Example 26, S-[2-[1-(2-ethylbutyl)cyclohexanecarbonylamino]-phenyl]2-methylthiopropionate] | – | 7 µM | 44% | –
5 | CCC(=O)Sc1ccccc1NC(=O)C1(CCC(C)C)CCCCC1 [Example 38] | – | 6 µM | 40% | 15%
6 | CC(=O)OC(C)(C)C(=O)Sc1ccccc1NC(=O)C1(CCC(C)C)CCCCC1 [Example 25-52] | – | 68 µM | 40% | 19%
7 | CC(C)CCC1(C(=O)Nc2ccccc2SC(=O)NC(C)(C)C)CCCC1 [Example 25-105] | 14% | 6 µM | – | –
8 | CC(C)CCC1(C(=O)Nc2ccccc2SSc2ccccc2NC(=O)C2(CCC(C)C)CCCCC2)CCCCC1 [Example 8] | 25% | 3 µM | – | –
9 | CC(C)CCC1(C(=O)Nc2ccccc2SC(=O)C2CC2)CCCCC1 [Example 42] | – | 9 µM | 38% | 31%
10 | CC(=O)N[C@@H](CCC(N)=O)C(=O)Sc1ccccc1NC(=O)C1(CCC(C)C)CCCCC1 [Example 45] | – | 7 µM | 36% | 18%
11 | CC(C)CCC1(C(=O)Nc2ccccc2SC(=O)N(C(=O)Nc2ccccc2)c2ccccc2)CCCCC1 [Example 25-101] | – | 7 µM | 8% | –
12 | COc1ccc(SC(=O)C(C)(C)C)c(NC(=O)C2(CCC(C)C)CCCCC2)c1 [Example 78] | – | – | 11% | –
13 | CC(C)CCC1(C(=O)Nc2ccccc2SC(=O)COc2ccc(Cl)cc2)CCCCC1 [Example 41] | – | 7 µM | 42% | 27%
14 | CC(C)CCC1(C(=O)Nc2ccccc2SC(=O)Cc2ccccc2)CCCC1 [Example 25-61] | – | 5 µM | 28% | –
15 | CC(C)C1(C(=O)Nc2ccccc2S)CCCCC1 [Example 14] | – | 8 µM | 9% | –
16 | CCC(CC)CC1(C(=O)Nc2ccccc2SC(=O)C(C)(C)O)CCCCC1 [Example 62] | – | 4 µM | 38% | –
17 | CC(C)CCC1(C(=O)Nc2ccc(Cl)cc2SC(=O)C(C)(C)C)CCCCC1 [Example 77] | – | 17 µM | 1% | –
18 | CC(C)CCC1(C(=O)Nc2ccccc2SC(=O)NC(C)(C)C)CCCCC1 [Example 25-97] | 19% | 9 µM | – | –
19 | CC(C)CCC1(C(=O)Nc2ccccc2SC(=O)CCl)CCCCC1 [Example 36] | – | 16 µM | 19% | –
20 | CC(C)CCC1(C(=O)Nc2cc(F)ccc2SC(=O)C(C)(C)C)CCCCC1 [Example 79] | – | 60 µM | 26% | 14%

Row | Compound | inhibition at 100 mg/kg (CETP [1]) | IC50 (CETP [2]) | inhibition at 30 mg/kg (CETP [1]) | inhibition at 10 mg/kg (CETP [1])
21 | CC(=O)N[C@@H](Cc1ccccc1)C(=O)Sc1ccccc1NC(=O)C1(CCC(C)C)CCCCC1 [Example 34] | – | 9 µM | 4% | –
22 | CCC(CC)CC1(C(=O)Nc2ccccc2SC(=O)C(C)(C)C)CCCCC1 [Example 60] | – | 41 µM | 44% | –
23 | CC(C)CCC1(C(=O)Nc2ccccc2SC(=O)c2ccccc2Cl)CCCCC1 [Example 25-49] | – | 21 µM | 16% | –
24 | CCC(CC)CC1(C(=O)Nc2ccccc2SC(=O)COc2ccc(Cl)cc2)CCCCC1 [Example 63] | – | 4 µM | 43% | –
25 | CC(C)CCC1(C(=O)Nc2cc(C#N)ccc2SC(=O)C(C)(C)C)CCCCC1 [Example 75] | – | 25 µM | 1% | –
26 | CC(C)CCC1(C(=O)Nc2ccccc2SC(=O)Nc2ccccc2)CCCCC1 [Example 56] | – | 13 µM | 34% | –
27 | Cc1ccc(S)c(NC(=O)C2(CCC(C)C)CCCCC2)c1 [Example 22] | – | 56 µM | 44% | 22%
28 | CC(C)CCC1(C(=O)Nc2ccccc2SC(=O)COc2ccccc2)CCCCC1 [Example 39] | – | 11 µM | 41% | 17%
29 | CC(C)(C)C(=O)Sc1cc(Cl)c(Cl)cc1NC(=O)[C@@]12CCCC[C@@H]1CCC2 [Example 66-24] | – | 12 µM | – | –
30 | CC(=O)N[C@@H](Cc1ccccc1)C(=O)Sc1ccccc1NC(=O)C1(C)CCCCC1 [Example 25-32] | – | 20 µM | – | –
31 | CC(=O)N1CCC[C@H]1C(=O)Sc1ccccc1NC(=O)C1(C)CCCCC1 [Example 25-37] | – | 24 µM | – | –
32 | CC(C)(C)C(=O)Sc1cc(Cl)c(Cl)cc1NC(=O)CC1CCCCC1 [Example 66-28] | – | 18 µM | – | –
33 | CCC(=O)Sc1cc(Cl)c(Cl)cc1NC(=O)C1(CCC(C)C)CCCCC1 [Example 25-85] | – | 7 µM | – | –
34 | CC(C)(C)C(=O)Sc1ccc(Cl)cc1NC(=O)C1(C)CCCCC1 [Example 66-4] | – | 28 µM | – | –
35 | CC(=O)N[C@@H](CC(C)C)C(=O)Sc1ccccc1NC(=O)C1(C)CCCCC1 [Example 25-35] | – | 27 µM | – | –
36 | CC(C)(C)C(=O)Sc1cc(Cl)c(Cl)cc1NC(=O)C(C)(C)C1CCCCC1 [Example 66-41] | – | 25 µM | – | –
37 | CC(C)CC1(C(=O)Nc2cc(Cl)c(Cl)cc2SC(=O)C(C)(C)C)CCCCC1 [Example 66-42] | – | 10 µM | – | –
38 | CC(C)(C)C(=O)Sc1cc(Cl)c(Cl)cc1NC(=O)C1(C)CCCCC1 [Example 66-9] | – | 9 µM | – | –
39 | Cc1cccc(NC(=O)C2(CCC(C)C)CCCCC2)c1S [Example 23] | – | – | 18% | –
40 | CCC1(C(=O)Nc2ccccc2S)CCCCC1 [Example 15] | – | 12 µM | – | –
